Measurements published in US7626021B2, “Fused ring heterocycle kinase modulators” (SGX Pharmaceuticals, Inc., priority 2004, dated 2009).
pIC50: −log10 of the molar value.

System: Ba/F3 cells transfected with T315I BCR-ABL
Assay: BCR-ABL phospho-ELISA in T315I cells or Ba/F3 T315I proliferation (XTT)
Assay type: cell-based
Details: Mus musculus, BaF3, phospho-ELISA or 72 h XTT proliferation, read-out: P_ELISA_[T3151l_Cells] or Ba/F3 T315l proliferation (XTT)
Protocol: MV4-11 and THP cells were maintained in Iscove's Modified Dulbecco's Medium supplemented with 10% fetal bovine serum (FBS) and penicillin/streptomycin, Ba/F3 cells were maintained in RPMI 1640 supplemented with 10% FBS, penicillin/streptomycin and 5 ng/ml recombinant mouse IL-3.
Compounds were tested in the following assays in duplicate.
96-well XTT assay: Cells were grown in growth media containing various concentrations of compounds (duplicates) on a 96-well plate for 72 hours at 37° C. The starting cell number was 5000-8000 cells per well and volume was 120 μl. At the end of the 72-hour incubation, 40 μl of XTT labeling mixture (50:1 solution of sodium 3′-[1-(phenylamino-carbonyl)-3,4-tetrazolium]-bis(4-methoxy-6-nitro) benzene sulfonic acid hydrate and Electron-coupling reagent: PMS (N-methyl dibenzopyrazine methyl sulfate) were added to each well of the plate. After an additional 2-6 hours of incubation at 37° C., the absorbance reading at 405 nm with background correction at 650 nm was measured with a spectrophotometer.
BCR-ABL Phospho-ELISA Assay
Cells (Ba/F3 cells transfected with WT BCR-ABL, other kinases, or T315I, Y253F, or other mutant forms of BCR-ABL) were grown in the absence of IL-3 at least ½ week before the assay. The day before assay, the cells were fed with fresh media so that at the time of assay the cells were in log phase. Ba/F3 cells that had been grown in the absence of IL-3 for at least ½ week were resuspended in RPMI 1640 so that each well of a 96-well plate would contain approximately 200,000 cells. Cells were distributed in a 96-well plate containing serially diluted concentrations of test compounds. Cells were typically incubated with or without test compounds for 60-120 minutes at 5% CO2, 37° C. The incubation was performed with or without other additives such as 10% FCS or 50% human plasma. After incubation of compounds, lysis buffer was added and incubated for 10-15 minutes; the lysate was cleared by centrifugation.
To make the ELISA plate, commercially available Anti-ABL antibodies (e.g. (Ab-3, Calbiochem OP20) were prepared at a concentration of 0.125 μg/ml in coating buffer (0.1M Na-carbonate, pH 9.5), and plated at 10 ml per plate ([…] 100 μg/ml Ab/10 ml). In a high binding multi-well plate, 100 μl Ab in coating buffer were added to each well, and each plate was covered with a plate seal and incubated overnight at 4° C.
Excess antibody was removed and the ELISA plate was washed 3-4 times with 200 μl of wash buffer (0.05% Tween in PBS, pH 7.4). 150 μl of lysate (see above) were transferred to the ELISA plate. Plates were sealed and incubated 2 hours at room temperature. The detection antibody (e.g. HRP conjugated anti-pTyr or unconjugated α-p-Y 4G10, Upstate) was prepared in assay diluent. The antibody was diluted 1:1000 (stock=2 μg/μl, 200 μg in 100 μl; f.c.=2 μg/ml) in assay diluent and 10 ml of diluted antibody per plate were added. The lysate was removed from the ELISA plates, and wells were washed four times with 200 μl of wash buffer per well. 100 μl of detection antibody was added to each well; the plate was covered, and incubated 1 hr at room temperature (21° C.). Excess detection antibody was removed from the ELISA plates, and the wells were washed four times with 200 μl of wash buffer per well.
If necessary, (i.e. for unconjugated anti-pTyr antibody) secondary antibody (goat anti-rabbit HRP) was diluted 1:3000 in assay diluent (3.33 μl per 10 ml diluent) and added at 10 ml of diluted antibody per plate. Excess secondary antibody was removed from the ELISA plate, and the plate was washed four times with 200 μl per well of wash buffer.
Substrate Reagent A and Substrate Reagent B (Pierce Cat#37070 SuperSignal ELISA Pico Chemiluminescent Substrate) were added immediately before use (10 ml resultant solution per plate). 100 μl substrate were added per well, mixed for 1 minute, and chemiluminescent signal was measured with a luminometer.

| Structure (SMILES) | pIC50 |
| --- | --- |
| COc1ccccc1-c1n[nH]c2ncc(Br)cc12 | 5.00 to 6.00 |
| c1ccc(-c2n[nH]c3ncc(-c4ccc5[nH]ccc5c4)cc23)cc1 | 5.00 to 6.00 |
| Oc1cccc(-c2cnc3[nH]nc(-c4ccccc4)c3c2)c1 | > 6.00 |
| c1ccc(-c2n[nH]c3ncc(-c4cccnc4)cc23)cc1 | < 5.00 |
| COc1ccccc1-c1n[nH]c2ncc(-c3cccnc3)cc12 | 5.00 to 6.00 |
| COc1ccccc1-c1n[nH]c2ncc(-c3cccc(C(=O)N(C)C)c3)cc12 | > 6.00 |
| COc1ccccc1-c1n[nH]c2ncc(-c3ccc(O)c(C(=O)N4CCOCC4)c3)cc12 | > 6.00 |
| CCOc1ccccc1-c1n[nH]c2ncc(-c3cccc(C(=O)N4CCOCC4)c3)cc12 | 5.00 to 6.00 |
| COc1ncc(-c2n[nH]c3ncc(-c4cccc(C(=O)N5CCOCC5)c4)cc23)c(OC)n1 | 5.00 to 6.00 |
| COc1ccccc1-c1cnc2[nH]nc(-c3ccccc3OC)c2c1 | 5.00 to 6.00 |
| COc1ccccc1-c1n[nH]c2ncc(-c3cccc(C(=O)NC(C)C)c3)cc12 | 5.00 to 6.00 |
| O=C(c1cccc(-c2cnc3[nH]nc(-c4ccc5cc[nH]c5c4)c3c2)c1)N1CCOCC1 | 5.00 to 6.00 |
| COc1ccccc1-c1n[nH]c2ncc(-c3cccc(C(=O)N4CCN(C)CC4)c3)cc12 | > 6.00 |
| CCc1ccccc1-c1n[nH]c2ncc(-c3cccc(C(=O)N4CCOCC4)c3)cc12 | > 6.00 |
| Cc1cc(F)ccc1-c1n[nH]c2ncc(-c3cccc(C(=O)N4CCOCC4)c3)cc12 | 5.00 to 6.00 |
| COc1c(F)cccc1-c1n[nH]c2ncc(-c3cccc(C(=O)N4CCOCC4)c3)cc12 | > 6.00 |
| Cc1ccsc1-c1n[nH]c2ncc(-c3cccc(C(=O)N4CCOCC4)c3)cc12 | > 6.00 |

| Structure (SMILES) | pIC50 |
| --- | --- |
| COc1ccccc1-c1n[nH]c2ncc(-c3cccc(C(=O)N4CCC(CO)CC4)c3)cc12 | > 6.00 |
| O=C(c1cccc(-c2cnc3[nH]nc(-c4cccc5cccnc45)c3c2)c1)N1CCOCC1 | > 6.00 |
| Cn1ccc2cc(-c3n[nH]c4ncc(-c5cccc(C(=O)N6CCOCC6)c5)cc34)ccc21 | 5.00 to 6.00 |
| O=C(c1cccc(-c2cnc3[nH]nc(-c4ccncc4Cl)c3c2)c1)N1CCOCC1 | 5.00 to 6.00 |
| COc1ccccc1-c1n[nH]c2ncc(-c3cccc(C(=O)N4CCCC4)c3)cc12 | > 6.00 |
| COc1ccccc1-c1n[nH]c2ncc(-c3ccc(C(=O)N4CCCC4)cc3)cc12 | 5.00 to 6.00 |
| COc1ccccc1-c1n[nH]c2ncc(-c3ccc(C(=O)NC4CC4)cc3)cc12 | > 6.00 |
| COc1ccccc1-c1n[nH]c2ncc(-c3cnc4[nH]n(C)c(=O)c4c3)cc12 | 5.00 to 6.00 |
| COc1ccccc1-c1n[nH]c2ncc(-c3cccc(S(=O)(=O)NC4CC4)c3)cc12 | > 6.00 |
| COc1ccccc1-c1n[nH]c2ncc(-c3cccc(C(=O)N4CCN(CCN(C)C)CC4)c3)cc12 | > 6.00 |
| CCN1CCN(C(=O)c2cccc(-c3cnc4[nH]nc(-c5cc(F)ccc5OC)c4c3)c2)CC1 | > 6.00 |
| COc1cc(-c2cnc3[nH]cc(-c4ccc(C)cc4)c3n2)ccc1O | > 6.00 |
| COc1ccccc1-c1n[nH]c2ncc(-c3ccc(C(=O)N4CCN(C)CC4)cc3)cc12 | > 6.00 |
| COc1cc(-c2cnc3[nH]nc(-c4ccccc4)c3c2)ccc1O | 5.00 to 6.00 |
| COc1ccccc1-c1n[nH]c2ncc(-c3ccc(C(=O)N4CCOCC4)cc3)cc12 | 5.00 to 6.00 |
| COc1ccccc1-c1c[nH]c2ncc(-c3cccc(C(=O)N(C)C)c3)nc12 | < 5.00 |
